Laboratory results as given in ChEMBL document CHEMBL6153161, “Exploring Arylidene-Indolinone Ligands of Autophagy Proteins LC3B and GABARAP” (ACS Med Chem Lett, 2025).

How the values were obtained:
[1] = Inhibition of GABARAP (unknown origin) expressed in Escherichia coli BL21(DE3) incubated for 45 mins by AlphaScreen assay; design: species or system Homo sapiens
[2] = biological target: T1, Microtubule-associated protein 1 light chain 3 beta (Homo sapiens, UniProt Q9GZQ8); assay: Inhibition of LC3B (unknown origin) expressed in Escherichia coli BL21(DE3) incubated for 45 mins by AlphaScreen assay
[3] = Binding affinity to GABARAP (unknown origin) assessed as dissociation constant by biolayer interferometry analysis; design: species or system Homo sapiens
Bacteria = assay: Inhibition of beta-lactamase (unknown origin) at up to 25 uM incubated for 15 mins by beta-lactamase assay
[4] = biological target: T1, Microtubule-associated protein 1 light chain 3 beta; assay: Binding affinity against recombinant LC3B (unknown origin) assessed as dissociation constant by 2D-NMR titration assay
[5] = biological target: T1, Microtubule-associated protein 1 light chain 3 beta; assay: Binding affinity against recombinant LC3B (unknown origin) assessed as dissociation constant by surface plasmon resonance assay
[6] = biological target: T1, Microtubule-associated protein 1 light chain 3 beta; assay: Binding affinity against recombinant LC3B (unknown origin) assessed as dissociation constant by small molecule microarray with a scanning oblique-incidence reflectivity difference microscopic analysis

SMILES | IC50 [1] [µM] | IC50 [2] [µM] | other results
O=C1Nc2ccc(I)cc2/C1=C\c1cnc[nH]1 | > 70 |  | 
Cc1ncsc1/C=C1/C(=O)Nc2ccc(I)cc21 | > 14 |  | 
CC(C)C[C@H](NC(=O)[C@H](Cc1c[nH]cn1)NC(=O)[C@H](CCC(=O)O)NC(=O)[C@H](Cc1c[nH]c2ccccc12)NC(=O)[C@@H](NC(=O)[C@H](Cc1ccc(O)cc1)NC(=O)[C@@H](NC(=O)[C@H](C)NC(=O)[C@H](CC(=O)O)NC(=O)CCCC[C@@H]1SC[C@@H]2NC(=O)N[C@@H]21)[C@@H](C)O)[C@@H](C)O)C(=O)N[C@@H](C)C(=O)N[C@@H](Cc1c[nH]c2ccccc12)C(=O)N1CCC[C@H]1C(=O)O | 0.055 |  | Kd [3]: 55 nM
COc1ccc(/C=C2/C(=O)Nc3ccc(I)cc32)cc1 | > 11 | > 11 | 
O=C1Nc2ccc(I)cc2/C1=C\c1ccc(-c2ccc(C(F)(F)F)cc2)cc1 | > 1 | > 1 | 
O=C1Nc2ccc(I)cc2/C1=C\c1ccc(O)cc1 | > 10 | > 10 | 
Cc1ccc2c(c1)NC(=O)/C2=C/c1cc(Br)c(O)c(Br)c1 | 24 |  | 
O=C1Nc2cc(Cl)c(Cl)cc2/C1=C\c1cc(Br)c(O)c(Br)c1 | > 25 |  | 
COC(=O)c1ccc2c(c1)NC(=O)/C2=C/c1cc(Br)c(O)c(Br)c1 | 5.7 |  | 

More lines, main results first:

IC50 [1] [µM] | IC50 [2] [µM] | SMILES | other results
175 | 176 | O=C1Nc2ccccc2/C1=C\c1cc(Br)c(O)c(Br)c1 | 
> 25 |  | O=C1Nc2ccc(I)cc2/C1=C\c1ccccc1 | 
12 |  | O=C1Nc2cc(I)ccc2/C1=C\c1cc(Br)c(O)c(Br)c1 | 
9.1 | 4.4 | O=C1Nc2ccc(I)cc2/C1=C\c1cc(Br)c(O)c(Br)c1 | inhibition (Bacteria): No effect; Kd [4]: > 200 µM; Kd [5]: 8.9 µM; Kd [6]: 468 nM
13 |  | O=C1Nc2ccc(Br)cc2/C1=C\c1cc(Br)c(O)c(Br)c1 | 
> 3.5 | > 3.5 | O=C1Nc2ccc(I)cc2/C1=C\c1cncs1 | 
75 | 119 | O=C1Nc2ccc(I)cc2/C1=C\c1ccc(C(=O)O)cc1 | 
> 1.8 | > 1.8 | O=C1Nc2ccc(I)cc2/C1=C\c1ccc[nH]1 | 
> 12.5 | > 12.5 | O=C1Nc2ccc(I)cc2/C1=C\c1cccc2nccn12 | 
> 6.4 |  | O=C1Nc2ccc(I)cc2/C1=C\c1cc(Br)cc(Br)c1 | 
15 |  | O=C1Nc2ccc(I)cc2/C1=C\c1cc(Br)cc(Br)c1O | 
